Results: ChEMBL document CHEMBL1153958, “Design and optimization of selective serotonin re-uptake inhibitors with high synthetic accessibility. Part 1” (Bioorg Med Chem Lett, 2009)

Key:
[1] = target: Sodium-dependent serotonin transporter (Homo sapiens, UniProt P31645); assay: Inhibition of radiolabeled serotonin reuptake at human SERT expressed in HEK293 cells; format: cell-based
[2] = target: Sodium-dependent noradrenaline transporter (Homo sapiens, UniProt P23975); assay: Inhibition of radiolabeled noradrenaline reuptake at human NET expressed in HEK293 cells; format: cell-based
Chain of Sodium-dependent noradrenaline transporter (P23975 whole entry): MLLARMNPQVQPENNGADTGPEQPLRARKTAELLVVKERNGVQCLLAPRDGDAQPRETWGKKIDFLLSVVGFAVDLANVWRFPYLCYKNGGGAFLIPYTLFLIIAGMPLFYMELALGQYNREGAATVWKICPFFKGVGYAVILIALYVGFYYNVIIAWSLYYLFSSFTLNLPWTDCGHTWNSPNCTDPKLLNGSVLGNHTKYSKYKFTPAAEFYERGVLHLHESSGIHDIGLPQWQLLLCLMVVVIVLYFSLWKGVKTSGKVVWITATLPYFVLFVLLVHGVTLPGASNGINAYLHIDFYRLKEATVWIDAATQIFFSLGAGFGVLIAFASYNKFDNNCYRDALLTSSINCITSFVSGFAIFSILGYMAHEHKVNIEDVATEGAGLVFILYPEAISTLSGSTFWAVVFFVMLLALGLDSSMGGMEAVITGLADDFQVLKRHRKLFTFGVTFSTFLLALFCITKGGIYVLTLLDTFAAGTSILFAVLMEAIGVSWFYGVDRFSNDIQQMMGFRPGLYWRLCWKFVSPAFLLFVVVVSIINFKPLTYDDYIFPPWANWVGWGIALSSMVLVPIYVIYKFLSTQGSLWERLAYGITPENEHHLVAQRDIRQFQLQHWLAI

[3] = target: Sodium-dependent dopamine transporter (Homo sapiens, UniProt Q01959); assay: Inhibition of radiolabeled dopamine reuptake at human DAT expressed in HEK293 cells; format: cell-based
Chain of Sodium-dependent dopamine transporter (Q01959 whole entry): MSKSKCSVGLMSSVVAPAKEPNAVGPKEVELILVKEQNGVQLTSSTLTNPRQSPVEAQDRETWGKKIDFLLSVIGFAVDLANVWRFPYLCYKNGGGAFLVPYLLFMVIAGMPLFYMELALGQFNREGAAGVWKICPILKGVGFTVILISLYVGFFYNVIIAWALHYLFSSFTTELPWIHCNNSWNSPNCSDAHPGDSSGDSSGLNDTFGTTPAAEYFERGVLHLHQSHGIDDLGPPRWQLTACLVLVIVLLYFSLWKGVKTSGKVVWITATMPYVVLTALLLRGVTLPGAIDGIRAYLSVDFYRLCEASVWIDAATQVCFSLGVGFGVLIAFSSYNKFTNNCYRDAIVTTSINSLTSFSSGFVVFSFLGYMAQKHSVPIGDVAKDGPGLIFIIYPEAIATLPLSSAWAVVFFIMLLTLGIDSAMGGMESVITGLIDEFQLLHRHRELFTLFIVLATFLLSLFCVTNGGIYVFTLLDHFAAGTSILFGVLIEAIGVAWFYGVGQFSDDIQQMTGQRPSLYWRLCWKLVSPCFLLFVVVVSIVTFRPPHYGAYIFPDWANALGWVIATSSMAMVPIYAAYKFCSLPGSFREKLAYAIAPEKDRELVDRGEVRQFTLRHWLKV

[4] = target: Voltage-gated inwardly rectifying potassium channel KCNH2 (Homo sapiens, UniProt Q12809); assay: Displacement of [3H]dofetilide from human ERG expressed in HEK293 cells
Chain of Voltage-gated inwardly rectifying potassium channel KCNH2 (Q12809 whole entry): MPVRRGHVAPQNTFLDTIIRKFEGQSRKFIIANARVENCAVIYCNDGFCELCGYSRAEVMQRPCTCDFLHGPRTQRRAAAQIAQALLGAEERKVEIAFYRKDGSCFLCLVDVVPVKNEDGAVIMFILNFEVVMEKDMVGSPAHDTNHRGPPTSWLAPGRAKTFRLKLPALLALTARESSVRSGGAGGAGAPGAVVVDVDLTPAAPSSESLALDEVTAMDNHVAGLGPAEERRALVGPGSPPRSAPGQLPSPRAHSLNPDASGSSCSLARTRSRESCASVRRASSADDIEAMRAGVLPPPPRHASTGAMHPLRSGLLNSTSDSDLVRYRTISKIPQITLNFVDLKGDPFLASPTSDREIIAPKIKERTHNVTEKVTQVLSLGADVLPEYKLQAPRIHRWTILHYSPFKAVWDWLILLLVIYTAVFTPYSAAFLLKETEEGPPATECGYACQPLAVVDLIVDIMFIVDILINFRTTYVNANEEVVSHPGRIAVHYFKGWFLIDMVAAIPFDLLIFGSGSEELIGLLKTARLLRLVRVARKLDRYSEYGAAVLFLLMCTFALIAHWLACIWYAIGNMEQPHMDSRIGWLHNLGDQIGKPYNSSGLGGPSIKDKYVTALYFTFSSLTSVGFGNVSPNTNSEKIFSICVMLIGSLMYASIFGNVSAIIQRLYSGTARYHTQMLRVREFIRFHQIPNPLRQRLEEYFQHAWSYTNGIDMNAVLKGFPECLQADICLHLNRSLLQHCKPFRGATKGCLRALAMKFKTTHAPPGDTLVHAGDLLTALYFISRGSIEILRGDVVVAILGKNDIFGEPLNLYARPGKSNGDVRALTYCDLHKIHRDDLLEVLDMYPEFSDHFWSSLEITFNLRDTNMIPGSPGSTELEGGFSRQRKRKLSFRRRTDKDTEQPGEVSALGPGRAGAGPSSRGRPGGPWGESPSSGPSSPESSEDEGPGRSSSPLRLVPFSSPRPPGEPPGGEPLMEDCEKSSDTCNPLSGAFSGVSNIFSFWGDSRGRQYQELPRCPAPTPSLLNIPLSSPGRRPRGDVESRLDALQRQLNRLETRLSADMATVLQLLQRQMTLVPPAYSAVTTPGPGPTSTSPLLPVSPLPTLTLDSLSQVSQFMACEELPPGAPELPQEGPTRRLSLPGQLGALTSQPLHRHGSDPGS

[5] = target: T1, 5-hydroxytryptamine receptor 3A (Homo sapiens, UniProt P46098); assay: Displacement of [3H]granisetron from human 5HT3 receptor expressed in HEK293 cells; format: cell-based
T1 sequence (P46098 whole entry): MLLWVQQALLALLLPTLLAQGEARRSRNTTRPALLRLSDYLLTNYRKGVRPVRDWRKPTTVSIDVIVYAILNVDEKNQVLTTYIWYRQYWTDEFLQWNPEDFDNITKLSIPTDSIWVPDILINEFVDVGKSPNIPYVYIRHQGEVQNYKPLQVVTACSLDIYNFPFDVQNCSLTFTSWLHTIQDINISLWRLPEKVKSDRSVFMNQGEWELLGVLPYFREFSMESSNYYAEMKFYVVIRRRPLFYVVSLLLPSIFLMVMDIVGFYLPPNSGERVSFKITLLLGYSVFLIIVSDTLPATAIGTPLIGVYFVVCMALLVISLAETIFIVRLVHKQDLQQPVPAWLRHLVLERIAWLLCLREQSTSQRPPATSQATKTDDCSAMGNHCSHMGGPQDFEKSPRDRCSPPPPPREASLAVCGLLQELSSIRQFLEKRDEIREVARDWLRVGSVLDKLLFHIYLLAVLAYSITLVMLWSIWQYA

Chain of Sodium-dependent serotonin transporter (P31645 whole entry): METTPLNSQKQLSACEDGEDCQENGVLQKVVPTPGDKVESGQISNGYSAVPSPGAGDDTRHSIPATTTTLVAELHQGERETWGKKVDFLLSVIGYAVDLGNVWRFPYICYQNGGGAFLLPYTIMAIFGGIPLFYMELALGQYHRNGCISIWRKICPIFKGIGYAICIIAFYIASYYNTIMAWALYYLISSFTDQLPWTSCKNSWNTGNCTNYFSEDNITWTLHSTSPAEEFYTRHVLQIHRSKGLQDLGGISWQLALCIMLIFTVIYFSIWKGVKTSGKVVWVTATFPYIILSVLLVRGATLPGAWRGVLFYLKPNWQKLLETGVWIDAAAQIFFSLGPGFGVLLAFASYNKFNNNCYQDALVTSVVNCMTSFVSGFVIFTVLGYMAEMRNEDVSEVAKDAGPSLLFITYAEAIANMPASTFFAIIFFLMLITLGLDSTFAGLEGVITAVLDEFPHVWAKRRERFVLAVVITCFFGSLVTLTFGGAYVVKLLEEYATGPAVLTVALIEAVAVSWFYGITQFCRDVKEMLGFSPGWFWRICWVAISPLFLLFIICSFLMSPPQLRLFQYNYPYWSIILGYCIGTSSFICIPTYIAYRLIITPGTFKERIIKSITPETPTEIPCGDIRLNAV

| Compound | IC50 [1] [nM] | IC50 [2] [nM] | IC50 [3] [nM] | Ki [4] [nM] | Ki [5] [nM] |
| --- | --- | --- | --- | --- | --- |
| Cc1c(CCN2CCNCC2)ccc2cc(F)ccc12 | 4 | 8400 | > 31000 | 10100 | – |
| N#Cc1ccc2ccc(OCC3CCNCC3)cc2c1 | 3 | 4400 | 8800 | 3500 | 404 |
| c1ccc2cc(CO[C@H]3CCNC3)ccc2c1 | 23 | 2900 | 15000 | 15700 | – |
| CCN([C@@H]1CCNC1)S(=O)(=O)c1ccc2ccccc2c1 | 30 | 2600 | > 30000 | – | – |
| c1ccc2cc(OCC3CCNCC3)ccc2c1 | 8 | 1800 | > 7000 | – | 311 |
| Fc1ccc2cc(CCN3CCNCC3)ccc2c1 | 11 | 10500 | 24000 | 8500 | – |
| N#Cc1ccc2cc(OC[C@H]3CCNC3)ccc2c1 | 37 | 200 | – | – | – |
| N#Cc1ccc2cc(OCC3CCNCC3)ccc2c1 | 15 | 1900 | 6000 | – | – |
| CN([C@@H]1CCNC1)S(=O)(=O)c1ccc2ccccc2c1 | 138 | 3000 | – | – | – |
| CN([C@H]1CCNC1)S(=O)(=O)c1ccc2ccccc2c1 | > 400 | – | – | – | – |
| CN(Cc1ccc2ccccc2c1)[C@@H]1CCNC1 | 119 | 3000 | 3000 | – | – |
| c1ccc2cc(CO[C@@H]3CCNC3)ccc2c1 | 20 | 1200 | 3800 | 16400 | – |
| N#Cc1ccc2cc(CO[C@H]3CCNC3)ccc2c1 | 3 | 6800 | 861 | 4500 | – |
| Fc1ccc2cc(CO[C@@H]3CCNC3)ccc2c1 | 4 | 10600 | 2100 | 10300 | – |
| CCN(C1CCNCC1)S(=O)(=O)c1ccc2ccccc2c1 | > 400 | > 10000 | > 10000 | – | – |
| CCCCN(Cc1ccc2ccccc2c1)[C@H]1CCNC1 | 0.3 | 80 | 88 | – | – |
| CC(C)CN(Cc1ccc2ccccc2c1)[C@@H]1CCNC1 | 5 | 80 | 66 | – | – |
| c1ccc2cc(CCN3CCNCC3)ccc2c1 | 88 | – | – | – | – |
| N#Cc1ccc2cc(OC[C@@H]3CCNC3)ccc2c1 | 42 | 772 | – | – | – |
| CN(Cc1ccc2ccccc2c1)[C@H]1CCNC1 | 13 | 5400 | 7700 | > 5000 | – |
| c1ccc2cc(CN(C3CCC3)C3CCNCC3)ccc2c1 | 2 | 1500 | 210 | – | – |
| CCCCN(C1CCNCC1)S(=O)(=O)c1ccc2ccccc2c1 | 14 | 40000 | 19000 | 716 | – |
| CCCCN([C@H]1CCNC1)S(=O)(=O)c1ccc2ccccc2c1 | 16 | 5600 | > 30000 | 412 | – |
| c1ccc2cc(OCC3CCNC3)ccc2c1 (racemic) | 25 | 1400 | 1000 | > 5500 | – |
| COCC(Oc1ccc2ccccc2c1)C1CCNCC1 (racemic) | 5 | 827 | – | – | > 10000 |
| c1ccc2cc(COC3CCNCC3)ccc2c1 [LITOXETINE] | 6 | 6500 | 1300 | – | – |
